Read-outs that look alike come from different tables or passages of the source.
How the values were obtained:
A549-ACE2 cells [1] = test system: A549-ACE2 cells
A549-ACE2 cells [2] = assay: MTT cell viability assay; conditions: 0.63 μM
SARS-CoV-2 [3] = conditions: Vero cells, anti-NP antibody, Mount Sinai; cited from earlier work
Wuhan PV = assay type: cell-based, SARS-CoV-2
A549-ACE2 cells [4] = assay: cells; conditions: Homo sapiens, A549-ACE2, read-out: EC50 for PLD induction
AXL = conditions: read-out: IC50 against AXL; cited from earlier work
SARS-CoV-2 [5] = conditions: Huh7 cells; cited from earlier work
Omicron PV = assay type: cell-based, SARS-CoV-2
SARS-CoV-2 [6] = conditions: Vero cells; cited from earlier work
SARS-CoV-2 [7] = conditions: Calu-3 cells; cited from earlier work
rVSV-EBOV = assay: microbe, parasite or virus in culture; assay type: cell-based, Ebola virus; conditions: Zaire ebolavirus, A549-ACE2, read-out: EC50 against rVSV-EBOV
Delta PV = assay type: cell-based, SARS-CoV-2
SARS-CoV-2 [8] = conditions: A549-ACE2 cells, RT-PCR and plaque assay, Institut Pasteur; cited from earlier work
[9] = test system: SARS-CoV-2 (USA-WA1 strain); assay: microbe, parasite or virus in culture; assay type: cell-based; conditions: Severe acute respiratory syndrome coronavirus 2, A549-ACE2, read-out: EC50 against SARS-CoV-2
SARS-CoV-2 [10] = conditions: A549-ACE2 cells; cited from earlier work
in vitro = conditions: human
VSV-G = assay type: cell-based, Vesicular stomatitis virus
Vero cells = conditions: cited from earlier work
A549-ACE2 cells [11] = conditions: A549-ACE2 infection assay
[12] = A549-ACE2 cells, compared with amodiaquine

With `CCc1nc(C(N)=O)c(Nc2ccc(N3CCC(N4CCN(C)CC4)CC3)c(OC)c2)nc1NC1CCOCC1` [Gilteritinib, gilteritinib] as the compound, how does the “PLD induction (in words)” value (A549-ACE2 cells [1]; [12]) read?
Its value is “induces a small amount of PLD”.

What about the “reduction of cell viability by MTT assay” value (A549-ACE2 cells [2]) of the same compound?
The value was “approximately 30%”.

And the EC50 (SARS-CoV-2 [3])?
The EC50 was roughly 800 nM.

And the “Wuhan PV infection compared to VSV-G” value (Wuhan PV)?
The value was “small decrease”.

And the EC50 (A549-ACE2 cells [4])?
The EC50 was 390 nM.

And the IC50 (AXL)?
The IC50 was 41 nM.

What about the EC50 (SARS-CoV-2 [5]) of the same compound?
The EC50 was 200 nM.

And the “infection inhibition against Omicron PV compared to VSV-G” value (Omicron PV)?
Its value is “significant infection inhibition”.

What about the EC50 (SARS-CoV-2 [6]) of the same compound?
Its EC50 is 6750 nM.

And the anti-SARS-CoV-2 activity (SARS-CoV-2 [7])?
The anti-SARS-CoV-2 activity was “no detectable activity”.

What about the EC50 (rVSV-EBOV) of the same compound?
The EC50 was 250 nM.

What about the “Delta PV infection compared to VSV-G” value (Delta PV) of the same compound?
Its value is “small decrease”.

And the EC50 (SARS-CoV-2 [8])?
The EC50 was 60 to 120 nM.

What about the EC50 [9] of the same compound?
The EC50 was roughly 100 nM.

What about the “lowest concentration tested showing inhibition of virus replication” value (SARS-CoV-2 [10]) of the same compound?
The value was 0.5 µM.

And the fold induction (in vitro)?
The fold induction was 15.

What about the “VSV-G infection relative to the level in imatinib- or nintedanib-treated cells” value (VSV-G) of the same compound?
The value was “around 50%”.

What about the CC50 (Vero cells) of the same compound?
The CC50 was 37200 nM.

Which “PLD induction (in words)” value (A549-ACE2 cells [1]; [12]) does the source give for `COC(=O)c1ccc2c(c1)NC(=O)/C2=C(\Nc1ccc(N(C)C(=O)CN2CCN(C)CC2)cc1)c1ccccc1` [Nintedanib, nintedanib] here?
The value was “strong PLD inducers”.

And the “cytotoxicity (in words)” value (A549-ACE2 cells [11])?
Its value is “little cytotoxicity”.

Which “PLD induction (in words)” value (A549-ACE2 cells [1]) does the source give for `Cc1ccc(NC(=O)c2ccc(CN3CCN(C)CC3)cc2)cc1Nc1nccc(-c2cccnc2)n1` [Imatinib, imatinib] here?
The value was “strong PLD inducers”.
